Columns and labels:
[1] = (§1) RORgamma Gal4 Reporter Gene Assay (FF): Cells were incubated for additional 16 h before firefly (FF) luciferase activities were measured sequentially in the same cell extract using a Dual-Light-Luciferase-Assay system (Dyer et al., Anal. Biochem. 2000, 282:158). All experiments were done at least in triplicates.
[2] = as §1, with “(REN):” for “(FF):”, “renilla (REN)” for “firefly (FF)”

| Structure (SMILES) | IC50 [1] | IC50 [2] |
| --- | --- | --- |
| CC(C)(C)NS(=O)(=O)c1ccc(-c2oc(C(=O)NC3CCS(=O)(=O)CC3)nc2CC2CCCCC2)c(Cl)c1Cl | 3.98 nM | 6.31 nM |
| CC(C)(O)CNC(=O)c1nc(C(=O)C2CCC(C)(C)CC2)c(-c2ccc(S(=O)(=O)NC(C)(C)C)c3ccccc23)s1 | 25.1 nM | 31.6 nM |
| CC(C)(C)c1cc(-c2nc(C(N)=O)oc2CC2CCCCC2)cc(C(C)(C)C)c1 | < 20000 nM | < 20000 nM |
| CCOC(=O)c1nc(Cc2ccccc2)c(-c2ccc(S(=O)(=O)NC(C)(C)C)c3ccccc23)s1 | 12.6 nM | 10 nM |
| CC(C)(C)c1cc(-c2nc(C(=O)N[C@H]3C[C@H](OC=O)C3)oc2CC2CCCCC2)cc(C2(C)CC2)c1 | 398 nM | 251 nM |
| CC(C)(O)CNC(=O)c1nc(CC2CCCCC2)c(-c2ccc(S(=O)(=O)NC(C)(C)C)c(Cl)c2Cl)o1 | 39.8 nM | 31.6 nM |

— ChEMBL document CHEMBL5727000, “Carboxamide or sulfonamide substituted thiazoles and related derivatives as modulators for the orphan nuclear receptor ROR[γ]” (2019)
